The subject of one experiment is NCI-N87 cell. Description: Proliferation inhibition assay in serum-containing media. The class given is cell-based, human. The protocol:
Cell viability was determined using Cell Titer Glo from Promega according to manufacturer's instructions.

In the next experiment the target is HER2 (Homo sapiens, UniProt P04626). Particulars: reported value; read-out: reported affinity of the parent antibody; cited from earlier work.

“pertuzumab: humanized version of the murine antibody 2C4 that inhibits dimerization of HER2 with other HER receptors [reference compound]”: the “inhibition of cell proliferation” value in the experiment with NCI-N87 cell is listed as “limited activity”.

B1: 1.39.1: fully human monoclonal antibody against human HER2, parent of 39S (WO 2008/019290); VH SEQ ID NO:43, VL SEQ ID NO:44 (antibody, V domains shown)
VH: EVQLVESGGGLVKPGGSLRLSCAASGFTFSSYSMNWVRQAPGKGLEWVSSISSSSSYIYYADSVKGRFTISRDNAKNSLYLQMNSLRAEDTAVYYCARGGDGYNYYYFDYWGQGTLVTVSS
VL: DIVMTQSPDSLAVSLGERATITCKSSQSVFFRSNNKNCLAWYQQRPGQPPNLLIYWASSRESGVPDRFSGSGSGTDFALTISSLQTEDVAVYYCQQYFGSPFTFGPGTKVDIK
For B1, in the experiment with HER2, the Kd was around 2 nM.

The record behind these values is patent publication US10160812B2, “Bispecific HER2 antibodies” (MedImmune, LLC, priority 2014, dated 2018).
